This note sets out measurements from PubChem BioAssay (NCI).

Some test systems named below: ACHN renal; K-562 leukemia; SF-268 CNS; SK-MEL-5 melanoma; SNB-75 CNS; SW-620 colon; U251 CNS; CCRF-CEM leukemia.
Holding throughout (test): NCI tumour cell line growth inhibition, 48 h

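Results reflect a 48-hour exposure of cells in 96-well plates to compound at five concentrations. Here, GI50 denotes the concentration required for 50% inhibition of growth. TGI: concentration producing complete growth inhibition.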

Consider `O=c1[nH]c2ccccc2n1C1CCN(CCOc2ccccc2)CC1`, for which the GI50 in the test with ACHN renal is 40.4 µM; in the test with K-562 leukemia, 6.85 µM; with SF-268 CNS, 39.1 µM; in the test with SK-MEL-5 melanoma, 16 µM; with SNB-75 CNS it was 23.7 µM; with SW-620 colon, 50.1 µM. The GI50 with U251 CNS is 20.5 µM. In addition, the TGI was > 100 µM with ACHN renal; > 100 µM in the test on K-562 leukemia; > 100 µM in the test with SF-268 CNS; 42 µM with SK-MEL-5 melanoma; > 100 µM in the test with SNB-75 CNS; > 100 µM with SW-620 colon. The TGI with U251 CNS is > 100 µM.

Turning to `CCOC(=O)c1cc(C(=O)c2cc(OC)c(OC)c(OC)c2)n2ccc(-c3cc[n+](CC(=O)c4cc(OC)c(OC)c(OC)c4)cc3)cc12`, the GI50 with ACHN renal is 3.33 µM; with SK-MEL-5 melanoma, 1.81 µM; with SNB-75 CNS, 1.46 µM; in the test on SW-620 colon, 1.76 µM. Further, the TGI in the test with ACHN renal came to 13.6 µM; with SK-MEL-5 melanoma, 3.54 µM; with SNB-75 CNS it was 3.36 µM; with SW-620 colon it was 3.47 µM.

With `O=C(Nc1ccc(Cl)cc1)N1CCN(c2ccc3nncn3n2)CC1`, the GI50 was 50.6 µM in the test on ACHN renal; 22 µM in the test with K-562 leukemia; > 100 µM in the test with SF-268 CNS; 37.3 µM in the test on SK-MEL-5 melanoma; > 100 µM with SNB-75 CNS; 60.8 µM with SW-620 colon. For the same molecule, in the test on U251 CNS, the GI50 is > 100 µM. Besides, the TGI with ACHN renal, in the test with K-562 leukemia, with SF-268 CNS, in the test on SK-MEL-5 melanoma, with SNB-75 CNS and with SW-620 colon was > 100 µM each time. For the same molecule, the TGI in the test on U251 CNS was > 100 µM.

For `COc1cc(NCCC2CCCCN2)c2ncccc2c1OC` (stereo not given), the GI50 in the test on ACHN renal is 21.2 µM; with SF-268 CNS, 14.2 µM; with SK-MEL-5 melanoma, 4.28 µM; in the test with SNB-75 CNS, 3.85 µM; in the test on SW-620 colon it was 5.5 µM; with U251 CNS, 4.12 µM. Moreover, the TGI was 89.9 µM with ACHN renal; 41.8 µM with SF-268 CNS; 14.9 µM with SK-MEL-5 melanoma; 19.5 µM in the test on SNB-75 CNS; 21.2 µM in the test with SW-620 colon; 16 µM in the test on U251 CNS.

Consider `Cc1ccc2c(c1)C(O)(c1ccccc1)CCS2` (stereo not given), for which the TGI is 62.6 µM in the test with ACHN renal; > 100 µM in the test with K-562 leukemia; > 100 µM in the test on SF-268 CNS; > 100 µM in the test on SK-MEL-5 melanoma; > 100 µM with SNB-75 CNS; > 100 µM in the test with SW-620 colon. In the test on U251 CNS, this molecule displayed a TGI of 45.8 µM.

For `CC(=O)/C=C/c1ccc(N(CCO)Cc2ccc(C(C)(C)C)cc2)cc1`, the GI50 in the test on ACHN renal was 50.1 µM; in the test with CCRF-CEM leukemia, 49 µM; in the test on SF-268 CNS it was 59 µM; with SK-MEL-5 melanoma it was 39.9 µM; in the test with SNB-75 CNS it was 54.7 µM; in the test on SW-620 colon, 119 µM. Also, the GI50 in the test with U251 CNS was 66.1 µM. Also, the TGI was determined as 170 µM in the test with ACHN renal; 208 µM in the test with CCRF-CEM leukemia; 200 µM with SF-268 CNS; 146 µM in the test on SK-MEL-5 melanoma; 200 µM in the test with SNB-75 CNS; 259 µM in the test on SW-620 colon. For the same molecule, the TGI with U251 CNS stood at 194 µM.

On to `Cc1cn2c(/C=C3\C(=O)N(C)c4ccc(Cl)cc43)c(C)nc2s1`, for which the GI50 in the test on ACHN renal is 4.62 µM; with CCRF-CEM leukemia it was 2.74 µM; with SF-268 CNS it was 3.02 µM; with SK-MEL-5 melanoma, 1.34 µM; in the test on SNB-75 CNS, 2.52 µM; in the test with SW-620 colon, 4.27 µM. In the test on U251 CNS, the GI50 was 3.27 µM. Further, the TGI is 32.6 µM in the test with ACHN renal; 10.1 µM in the test on CCRF-CEM leukemia; > 100 µM with SF-268 CNS; 19.5 µM in the test on SK-MEL-5 melanoma; 7.32 µM with SNB-75 CNS; > 100 µM in the test with SW-620 colon. The same molecule registered a TGI in the test on U251 CNS of 12.3 µM.

With `CCCCNCCCCCNc1cc(OC)cc2cccnc12`, the GI50 was 45.3 µM in the test on ACHN renal; 28.1 µM in the test with CCRF-CEM leukemia; 20.4 µM with K-562 leukemia; > 100 µM in the test on SF-268 CNS; 12.6 µM with SK-MEL-5 melanoma; 19.2 µM with SW-620 colon. In addition, the GI50 with U251 CNS was 42.6 µM. Moreover, the TGI in the test with ACHN renal is > 100 µM; in the test with CCRF-CEM leukemia, 74.2 µM; with K-562 leukemia, 44.8 µM; in the test on SF-268 CNS, > 100 µM; in the test with SK-MEL-5 melanoma, 27.6 µM; in the test on SW-620 colon, 39.4 µM. In the test on U251 CNS, the TGI is > 100 µM.

With `Nc1cc(N)c2nc(-c3ccccc3)c(NCc3ccc(Cl)c(Cl)c3)nc2c1`, the GI50 in the test on CCRF-CEM leukemia was 0.133 µM; in the test on K-562 leukemia, 3.09 µM; in the test on SF-268 CNS, 19.8 µM; with SK-MEL-5 melanoma, 3.48 µM; with SW-620 colon it was 3.26 µM. Also, the TGI is 1.83 µM with CCRF-CEM leukemia; 17.8 µM in the test on K-562 leukemia; 55.2 µM in the test with SF-268 CNS; 10.7 µM with SK-MEL-5 melanoma; 9.88 µM in the test with SW-620 colon.

Consider `Cc1cc(OCc2nn(CN3CCN(C)CC3)c(=S)n2/N=C/c2ccc(F)cc2)ccc1Cl`, for which the GI50 is 20.1 µM with ACHN renal; 19.8 µM in the test on CCRF-CEM leukemia; 19.2 µM in the test with K-562 leukemia; 19.6 µM with SF-268 CNS; 16.7 µM in the test with SK-MEL-5 melanoma; 13.4 µM in the test on SNB-75 CNS. The GI50 with SW-620 colon was 18.7 µM. The TGI in the test on ACHN renal was 34.3 µM; with CCRF-CEM leukemia, 43.4 µM; in the test on K-562 leukemia, 41.7 µM; in the test on SF-268 CNS it was 38 µM; in the test on SK-MEL-5 melanoma, 30.6 µM; in the test on SNB-75 CNS, 32.2 µM. Further, the TGI in the test on SW-620 colon is 35.7 µM.

Consider `C=C1C(O)C2CC(C)(C)C(=O)C2=C(CC(C)C)C12CC2` (stereo not given), for which the GI50 in the test on ACHN renal was > 100 µM; with CCRF-CEM leukemia, 98.1 µM; in the test on K-562 leukemia it was > 100 µM; with SF-268 CNS, > 100 µM; with SK-MEL-5 melanoma, > 100 µM; in the test with SW-620 colon, > 100 µM. Also, the GI50 in the test with U251 CNS was > 100 µM. Also, the TGI in the test on ACHN renal, with CCRF-CEM leukemia, in the test on K-562 leukemia, with SF-268 CNS, in the test on SK-MEL-5 melanoma and in the test with SW-620 colon was > 100 µM throughout. In addition, in the test on U251 CNS, the TGI is > 100 µM.
